Key:
[1] = species: Mus musculus; test: Tested for tumor growth inhibition in mice; type: functional
[2] = molecular target: DNA topoisomerase II (Homo sapiens, UniProt P11388+Q02880); test: Compound was tested for topoisomerase II inhibition in purified HeLa cells by SDS/K+ precipitation method; type: cell-based
[3] = tested on: P388; test: In vitro cytotoxicity was evaluated following 1 hour transient exposure of P388 mouse leukemia cells to the compound; type: functional, cell-based; details: P388, 1 h
[4] = tested on: Mus musculus; test: In vivo antitumor activity was measured as the maximum dose tolerated by murine when administered intravenously; type: functional
[5] = tested on: Mus musculus; test: In vivo antitumor activity was measured as the maximum dose tolerated by murine when administered subcutaneously; type: functional

Compound	T/C [1] [%]	EC50 [2] [nM]	IC50 [3] [nM]	MTD [4] [mg/kg]	MTD [5] [mg/kg]
Cc1cc(-c2c(F)cc3c4nn(C5CCN(C)CC5)c(=O)c-4cn(C4CC4)c3c2F)cc(C)n1	24	3200	94	128	
CC(=O)N[C@H]1CC[C@@H](n2nc3c4cc(F)c(-c5cc(C)nc(C)c5)c(F)c4n(C4CC4)cc-3c2=O)CC1		7400	1300		
Cc1cc(-c2c(F)cc3c4nn(CCN(C)C)c(=O)c-4cn(C4CC4)c3c2F)cc(C)n1	8	2600	260	34	
Cc1cc(-c2c(F)cc3c4nn(C5CCCCC5)c(=O)c-4cn(C4CC4)c3c2F)cc(C)n1	18	900	680	140	
Cc1cc(-c2c(F)cc3c4nn([C@H]5CC[C@H](N(C)C)CC5)c(=O)c-4cn(C4CC4)c3c2F)cc(C)n1	2	4400	260	390	
Cc1cc(-c2c(F)cc3c4n[nH]c(=O)c-4cn(C4CC4)c3c2F)cc(C)n1	>100	11000	7900		2500
Cc1cc(-c2c(F)cc3c4nn(C5CCC(C)CC5)c(=O)c-4cn(C4CC4)c3c2F)cc(C)n1 (centres undefined)		3100	1400		
Cc1cc(-c2c(F)cc3c4nn(CCCN(C)C)c(=O)c-4cn(C4CC4)c3c2F)cc(C)n1	35	1700	160	64	
Cc1cc(-c2c(F)cc3c4nn([C@H]5CC[C@@H](N)CC5)c(=O)c-4cn(C4CC4)c3c2F)cc(C)n1	21	500	440	110	
Cc1cc(-c2c(F)cc3c4nn(C)c(=O)c-4cn(C4CC4)c3c2F)cc(C)n1		5900	3100		
Cc1cc(-c2c(F)cc3c4nn(CCO)c(=O)c-4cn(C4CC4)c3c2F)cc(C)n1		6400	2000		
CCOC(=O)Cn1nc2c3cc(F)c(-c4cc(C)nc(C)c4)c(F)c3n(C3CC3)cc-2c1=O		6100	5100		
Cc1cc(-c2c(F)cc3c4nn(CCNCCO)c(=O)c-4cn(C4CC4)c3c2F)cc(C)n1	42	3300	1300	1410	
Cc1cc(-c2c(F)cc3c4nn(CC(=O)O)c(=O)c-4cn(C4CC4)c3c2F)cc(C)n1		10000	> 200000		
Cc1cc(-c2c(F)cc3c4nn(-c5ccccc5)c(=O)c-4cn(C4CC4)c3c2F)cc(C)n1	>100		1800		635
Cc1cc(-c2c(F)cc3c4nn([C@H]5CC[C@@H](N(C)C)CC5)c(=O)c-4cn(C4CC4)c3c2F)cc(C)n1	5	1700	67	63	
CC(=O)N[C@H]1CC[C@H](n2nc3c4cc(F)c(-c5cc(C)nc(C)c5)c(F)c4n(C4CC4)cc-3c2=O)CC1		9800	1200		
Cc1cc(-c2c(F)cc3c(=O)ccn(C4CC4)c3c2F)cc(C)n1	>100		15000		1950
Cc1cc(-c2c(F)cc3c4nn(C5CCOCC5)c(=O)c-4cn(C4CC4)c3c2F)cc(C)n1		1700	290		
Cc1cc(-c2c(F)cc3c4nn([C@H]5CC[C@H](N)CC5)c(=O)c-4cn(C4CC4)c3c2F)cc(C)n1	42	4200	1500	550	
COc1cc(NS(C)(=O)=O)ccc1Nc1c2ccccc2nc2ccccc12 [AMSACRINE]	0		150	48	
COc1cc([C@@H]2c3cc4c(cc3[C@@H](O[C@@H]3O[C@@H]5CO[C@@H](C)O[C@H]5[C@H](O)[C@H]3O)[C@H]3COC(=O)[C@H]23)OCO4)cc(OC)c1O [ETOPOSIDE]	3			96	
Cc1cc(-c2c(F)cc3c(=O)c(C(=O)O)cn(C4CC4)c3c2F)cc(C)n1 [WIN-57294]	31				600
